“Also recorded” adds a separate entry of the source.
Key:
TRPM4 homomers = TRPM4 homomers (Homo sapiens, UniProt Q8TD43); settings: Sala-Rabanal M, et al. 2012; cited from earlier work
HUVECs [1] = assay: HUVEC cell death after oxygen/glucose deprivation (cell count, MTT); type: cell-based, human; settings: 5 μM
Protocol: (§1) HUVECs (Lonza, Wokingham, UK) were cultured at 37° C. with 5% CO2. The culture medium is endothelial growth medium-2 (EGM-2) consisting of endothelial basal medium (EBM), supplemented with 2% fetal bovine serum, hydrocortisone, hFGF, VEGF, R3-IGF-1, ascorbic acid, HEGF, GA-1000, and heparin (Lonza, Wokingham, UK). Cells at passage 6-10 were used for experiments. HUVECs were subjected to oxygen/glucose deprivation (OGD). To achieve supplement deprivation, EGM-2 was changed to EBM without fetal bovine serum or growth supplements. Hypoxia was induced by culturing the cells in a hypoxic chamber (Stem Cell Technologies, Vancouver, Canada) with 1% O2 and 5% CO2 at 37° C. for 24 hours.

TRPM5 channel = target: T1, TRPM5 channel (Homo sapiens, UniProt Q9NZQ8); settings: Grand T, et al. 2008; cited from earlier work
T1 sequence (Q9NZQ8 1-1165): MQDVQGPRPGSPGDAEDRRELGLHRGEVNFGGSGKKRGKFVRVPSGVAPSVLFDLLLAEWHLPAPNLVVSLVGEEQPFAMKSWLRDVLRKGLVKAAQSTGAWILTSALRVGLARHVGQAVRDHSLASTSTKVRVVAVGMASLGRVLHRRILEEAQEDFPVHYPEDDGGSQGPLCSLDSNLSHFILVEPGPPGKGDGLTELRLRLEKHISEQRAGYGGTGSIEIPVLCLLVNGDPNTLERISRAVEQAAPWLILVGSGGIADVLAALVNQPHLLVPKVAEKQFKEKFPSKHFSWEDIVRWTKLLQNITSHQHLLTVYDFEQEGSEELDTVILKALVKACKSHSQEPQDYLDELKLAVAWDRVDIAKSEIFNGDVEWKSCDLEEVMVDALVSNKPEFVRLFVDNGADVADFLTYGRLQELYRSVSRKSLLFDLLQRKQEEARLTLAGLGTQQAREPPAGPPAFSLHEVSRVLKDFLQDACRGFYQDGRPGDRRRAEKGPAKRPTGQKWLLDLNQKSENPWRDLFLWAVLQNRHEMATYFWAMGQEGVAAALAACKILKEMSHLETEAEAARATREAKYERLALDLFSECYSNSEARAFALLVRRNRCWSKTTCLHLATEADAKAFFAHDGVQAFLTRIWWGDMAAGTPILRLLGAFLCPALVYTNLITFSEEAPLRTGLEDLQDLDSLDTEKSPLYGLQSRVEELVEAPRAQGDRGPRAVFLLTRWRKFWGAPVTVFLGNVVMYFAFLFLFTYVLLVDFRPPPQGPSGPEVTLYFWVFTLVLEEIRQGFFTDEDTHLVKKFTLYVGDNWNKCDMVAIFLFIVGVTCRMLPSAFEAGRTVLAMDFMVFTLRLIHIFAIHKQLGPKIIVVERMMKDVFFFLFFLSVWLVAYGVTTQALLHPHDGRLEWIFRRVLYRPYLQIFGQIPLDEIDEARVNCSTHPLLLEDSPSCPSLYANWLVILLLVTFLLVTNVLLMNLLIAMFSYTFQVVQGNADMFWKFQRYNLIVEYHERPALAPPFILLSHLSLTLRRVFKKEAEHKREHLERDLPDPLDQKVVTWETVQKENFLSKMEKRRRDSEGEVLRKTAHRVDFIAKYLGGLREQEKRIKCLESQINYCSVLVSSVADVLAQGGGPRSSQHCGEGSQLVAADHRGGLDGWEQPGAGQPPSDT

HUVECs [2] = assay: HUVEC cell number count after different doses of 9-phenanthrol; type: cell-based, human
Protocol: as §1
To test the functional impact of TRPM4 on HUVECs, the cells were incubated with the TRPM4-specific blocker 9-phenanthrol. […] A study was performed in which 9-phenantrol with the concentration ranged from 0.1 μM to 30 μM was added to HUVECs. […] Thus, 5 μM 9-phenanthrol was used to treat HUVECs.

HUVECs [3] = assay: Tube formation of HUVECs on Matrigel after OGD; type: cell-based, human; settings: 5 μM
Protocol: as §1
HUVECs were divided into the following groups: Normoxia; Normoxia+5 μM 9-phenanthrol (Sigma); Hypoxia; and Hypoxia+5 μM 9-phenanthrol. A 24-well culture plate was precoated with 250 μl of growth factor-reduced Matrigel (Sigma, USA) at 37° C. for 30 minutes. 24 hours after OGD, 4×10^4 cells (in 300 μl of EGM-2) from each group were seeded onto the Matrigel-coated plates. The formation of capillary structures was examined under a light microscope after 4 hours. This study was replicated more than 4 times.

Chain of TRPM4 homomers (Q8TD43 whole entry): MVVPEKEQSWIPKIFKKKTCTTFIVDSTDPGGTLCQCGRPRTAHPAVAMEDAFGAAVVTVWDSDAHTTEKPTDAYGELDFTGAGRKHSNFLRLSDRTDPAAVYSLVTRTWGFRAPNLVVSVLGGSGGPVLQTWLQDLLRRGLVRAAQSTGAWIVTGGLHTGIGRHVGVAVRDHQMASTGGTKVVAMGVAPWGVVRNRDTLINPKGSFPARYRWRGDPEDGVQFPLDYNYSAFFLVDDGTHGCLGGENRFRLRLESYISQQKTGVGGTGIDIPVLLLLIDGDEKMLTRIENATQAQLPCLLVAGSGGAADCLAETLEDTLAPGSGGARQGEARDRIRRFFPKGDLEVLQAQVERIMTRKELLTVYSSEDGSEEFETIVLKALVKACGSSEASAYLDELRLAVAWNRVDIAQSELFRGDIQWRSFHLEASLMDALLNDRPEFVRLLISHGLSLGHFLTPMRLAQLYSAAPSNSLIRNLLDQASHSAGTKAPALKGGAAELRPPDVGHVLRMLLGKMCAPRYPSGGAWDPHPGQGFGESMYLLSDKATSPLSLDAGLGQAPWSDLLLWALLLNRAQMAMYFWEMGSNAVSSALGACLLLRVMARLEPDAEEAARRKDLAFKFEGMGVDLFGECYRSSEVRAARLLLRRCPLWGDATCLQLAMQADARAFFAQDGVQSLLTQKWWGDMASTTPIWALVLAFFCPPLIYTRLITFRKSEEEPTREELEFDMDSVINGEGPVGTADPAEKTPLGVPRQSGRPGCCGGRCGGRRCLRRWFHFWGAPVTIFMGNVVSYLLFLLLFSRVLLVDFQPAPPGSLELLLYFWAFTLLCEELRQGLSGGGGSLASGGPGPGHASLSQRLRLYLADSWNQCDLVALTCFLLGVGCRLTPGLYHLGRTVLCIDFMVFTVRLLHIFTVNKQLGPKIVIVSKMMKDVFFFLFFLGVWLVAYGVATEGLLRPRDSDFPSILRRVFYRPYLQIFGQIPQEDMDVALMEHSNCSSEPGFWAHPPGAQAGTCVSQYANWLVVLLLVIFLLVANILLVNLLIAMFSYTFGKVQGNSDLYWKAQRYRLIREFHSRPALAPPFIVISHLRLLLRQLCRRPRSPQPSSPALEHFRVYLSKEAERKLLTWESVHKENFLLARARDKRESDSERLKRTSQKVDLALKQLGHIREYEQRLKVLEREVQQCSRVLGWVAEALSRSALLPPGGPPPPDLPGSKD

Row | Compound | sensitivity of TRPM4 homomers (TRPM4 homomers) | cell death after OGD (HUVECs [1]; 24 hours OGD) | MTT assay cell viability (HUVECs [1]; vs control cells) | HUVEC cell number count (HUVECs [1]; vs control cells, normoxia and hypoxia 24 hours) | effect on TRPM5 channel (TRPM5 channel) | cell death (HUVECs [2]; 10 μM 9-phenanthrol in culture medium) | cell survival (HUVECs [2]; 30 μM 9-phenanthrol) | cell death (HUVECs [2]; 9-phenanthrol between 0.1 μM and 5 μM) | tube formation (tube branches) on Matrigel (HUVECs [3])
1 | COc1ccc(Cl)cc1C(=O)NCCc1ccc(S(=O)(=O)NC(=O)NC2CCCCC2)cc1 [glibenclamide] | not sensitive |  |  |  |  |  |  |  | 
2 | Oc1cc2ccccc2c2ccccc12 [9-phenanthrol] |  | did not reduce cell death | no difference | no difference | does not affect | Cell death became prominent | Very few cells survived | No difference | large enhancement; also recorded: significantly increased

Source: patent US10221239B2, “TRPM4 channel inhibitors for stroke treatment” (Singapore Health Services Pte Ltd, priority 2013, dated 2019)
